Data on 13 molecules can be found in patent US10508120B2, “TYK2 inhibitors and uses thereof” (Nimbus Lakshmi, Inc., priority 2017, dated 2019).

Read-outs that look alike come from different tables or passages of the source.

The target in one assay is JAK2 kinase domain (JH1) (Homo sapiens (Human), UniProt O60674). The assay is described as follows: JAK2 Radioactive Kinase Assay. It is filed as biochemical. The note with it: for inhibition at 10 µM: read-out: JAK2 JH1% Inhibition @ 10 μM. In outline:
(§1)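 Single-point screen: 10 μM test compound, radioactive kinase read-out, percent inhibition reported for each kinase domain.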

A further assay deals with Tyk2 kinase domain (DH1) (Homo sapiens (Human), UniProt P29597). The assay is described as follows: Tyk2 Radioactive Kinase Assay. It counts as biochemical. The note with it: for inhibition at 10 µM: read-out: Tyk2 JH1% Inhibition @ 10 μM. In outline:
as §1

In assay [1] the target is human TYK2 (JH2domain-pseudokinase) (Homo sapiens (Human), UniProt P29597). Briefly: TYK2 JH2 Domain Binding Assay (KINOMEscan). In outline: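 Pseudokinase domain binding was measured by qPCR of tagged, bead-retained kinase after 1 h room-temperature competition, with 0.9% DMSO and compound up to 30,000 nM in 3-fold steps. Hill-equation Kd, duplicate.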
human TYK2 (JH2domain-pseudokinase), sequence (P29597 556-888): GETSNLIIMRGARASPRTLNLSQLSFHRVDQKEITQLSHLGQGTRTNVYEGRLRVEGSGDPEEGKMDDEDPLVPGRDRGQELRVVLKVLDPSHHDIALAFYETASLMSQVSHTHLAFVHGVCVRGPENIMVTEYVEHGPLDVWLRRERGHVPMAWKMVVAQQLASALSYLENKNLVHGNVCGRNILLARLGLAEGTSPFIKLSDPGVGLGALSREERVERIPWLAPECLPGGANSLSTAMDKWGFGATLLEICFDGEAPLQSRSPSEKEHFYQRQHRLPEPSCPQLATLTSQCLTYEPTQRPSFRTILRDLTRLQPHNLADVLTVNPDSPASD

The inhibition is the percentage by which the read-out fell short of the control. The Kd is a measure of binding affinity in units of concentration. A higher Kd goes with lower affinity.

Tyk2 kinase domain (DH1), sequence (P29597 897-1176): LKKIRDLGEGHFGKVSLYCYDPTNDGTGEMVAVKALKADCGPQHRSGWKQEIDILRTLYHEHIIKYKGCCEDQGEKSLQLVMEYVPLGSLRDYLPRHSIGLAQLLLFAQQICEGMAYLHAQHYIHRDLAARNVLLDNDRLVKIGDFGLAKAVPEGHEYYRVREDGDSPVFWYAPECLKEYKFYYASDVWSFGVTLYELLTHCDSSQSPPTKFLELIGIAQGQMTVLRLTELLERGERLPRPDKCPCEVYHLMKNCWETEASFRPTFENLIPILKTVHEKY
JAK2 kinase domain (JH1), sequence (O60674 849-1124): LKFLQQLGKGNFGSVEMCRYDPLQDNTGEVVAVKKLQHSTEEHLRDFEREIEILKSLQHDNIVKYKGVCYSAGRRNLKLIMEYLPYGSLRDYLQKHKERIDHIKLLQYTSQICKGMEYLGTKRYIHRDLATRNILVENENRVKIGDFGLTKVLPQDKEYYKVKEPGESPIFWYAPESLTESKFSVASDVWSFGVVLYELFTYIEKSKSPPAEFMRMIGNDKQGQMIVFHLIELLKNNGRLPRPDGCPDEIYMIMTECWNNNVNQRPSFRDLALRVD

For `CNc1cc(-c2cn(CCN3CCCCC3)c3ncccc23)nc2c(C(=O)N[C@@H]3CC[C@@H]3O)cnn12` [I-874], the inhibition at 10 µM is below 50% at JAK2 kinase domain (JH1) (10 μM compound, 10 μM ATP) and below 50% on Tyk2 kinase domain (DH1) (10 μM compound, 10 μM ATP). The same molecule showed an equilibrium dissociation constant (Kd) in assay [1] of 1 to 10 nM.

On to `CNc1cc(Nc2cccn([C@H]3CCC[C@H]3OC)c2=O)nc2c(C(=O)NC3CC3)cnn12` [I-491], for which the inhibition at 10 µM at JAK2 kinase domain (JH1) (compound at 10 μM, ATP 10 μM) was below 50%; at Tyk2 kinase domain (DH1) (compound at 10 μM, ATP 10 μM) it was below 50%. In assay [1], this molecule had a Kd of 1 to 10 nM.

With `CNc1cc(Nc2cccn(-c3nc(C)co3)c2=O)nc2c(C(=O)NC[C@H](C)CO)cnn12` [I-736], the inhibition at 10 µM on JAK2 kinase domain (JH1) (compound at 10 μM, ATP 10 μM) is below 50%; on Tyk2 kinase domain (DH1) (compound at 10 μM, ATP 10 μM) it was below 50%. The Kd in assay [1] is below 0.2 nM.

Consider `CNc1cc(Nc2cccn([C@@H]3CCOC[C@@H]3OC)c2=O)nc2c(C(=O)NC3CC3)cnn12` [I-594], for which, on JAK2 kinase domain (JH1) (compound at 10 μM, ATP 10 μM), the “JAK2 JH1% Inhibition @ 10 μM” value was “A (percent inhibition at 10 μM lower than 50)”. Also, at Tyk2 kinase domain (DH1) (compound at 10 μM, ATP 10 μM), the “Tyk2 JH1% Inhibition @ 10 μM” value was “A (percent inhibition at 10 μM lower than 50)”. Also, the dissociation constant (Kd) in assay [1] lay within 0.2 to 1 nM.

Take `CNc1cc(-c2nn(CCN3CCN(C)CC3)c3ncccc23)nc2c(C(=O)NC3CC3)cnn12` [I-479]: the inhibition at 10 µM at JAK2 kinase domain (JH1) (compound at 10 μM, ATP 10 μM) was below 50%; at Tyk2 kinase domain (DH1) (compound at 10 μM, ATP 10 μM), below 50%. Also, the equilibrium dissociation constant (Kd) in assay [1] lay within 1 to 10 nM.

For the molecule `CNc1cc(Nc2cccnc2OC2CC2)nc2c(C(=O)NC(C)(C)C#N)cnn12` [I-492, N-(2-cyanopropan-2-yl)-5-((2-cyclopropoxypyridin-3-yl)amino)-7-(methylamino)pyrazolo[1,5-a]pyrimidine-3-carboxamide], the inhibition at 10 µM at JAK2 kinase domain (JH1) (compound at 10 μM, ATP 10 μM) is below 50%; at Tyk2 kinase domain (DH1) (compound at 10 μM, ATP 10 μM), below 50%. For the same molecule, the Kd in assay [1] is below 0.2 nM.

Turning to `CNc1cc(Nc2cccn(-c3cccc(C(C)(C)O)n3)c2=O)nc2c(C(N)=O)cnn12` [I-37], the inhibition at 10 µM was below 50% at JAK2 kinase domain (JH1) (compound at 10 μM, ATP 10 μM) and below 50% at Tyk2 kinase domain (DH1) (compound at 10 μM, ATP 10 μM). This molecule also returned a Kd in assay [1] below 0.2 nM.

Regarding `CNc1cc(-c2cn(CCN3CCOCC3)c3ncccc23)nc2c(C(=O)N[C@H]3C[C@H]3F)cnn12` [I-583], the inhibition at 10 µM at JAK2 kinase domain (JH1) (compound at 10 μM, ATP 10 μM) was below 50%; at Tyk2 kinase domain (DH1) (compound at 10 μM, ATP 10 μM) it was below 50%. The same molecule had an equilibrium dissociation constant (Kd) in assay [1] below 0.2 nM.

Consider `CNc1cc(-c2cn(CCN3CCOCC3)c3ncccc23)nc2c(C(=O)N[C@@H]3COC[C@@H]3O)cnn12` [I-855, N-((3R,4R)-4-hydroxytetrahydrofuran-3-yl)-7-(methylamino)-5-(1-(2-morpholinoethyl)-1H-pyrrolo[2,3-b]pyridin-3-yl)pyrazolo[1,5-a]pyrimidine-3-carboxamide], for which the inhibition at 10 µM on JAK2 kinase domain (JH1) (10 μM compound, 10 μM ATP) was below 50%; on Tyk2 kinase domain (DH1) (10 μM compound, 10 μM ATP), below 50%. For the same molecule, in assay [1], the Kd lay within 1 to 10 nM.

Consider `COc1ncccc1Nc1cc(NCCN2CCOCC2)n2ncc(C(=O)NC3CC3)c2n1` [I-387, N-cyclopropyl-5-((2-methoxypyridin-3-yl)amino)-7-((2-morpholinoethyl)amino)pyrazolo[1,5-a]pyrimidine-3-carboxamide], for which the inhibition at 10 µM on JAK2 kinase domain (JH1) (compound at 10 μM, ATP 10 μM) was below 50%; on Tyk2 kinase domain (DH1) (compound at 10 μM, ATP 10 μM), below 50%. The same molecule showed an equilibrium dissociation constant (Kd) in assay [1] of 1 to 10 nM.

Regarding `CNc1cc(Nc2cccn(C3CCCN(C)C3)c2=O)nc2c(C(=O)N[C@@H]3C[C@@H]3F)cnn12` (stereo partly drawn) [I-506], the inhibition at 10 µM was below 50% at JAK2 kinase domain (JH1) (compound at 10 μM, ATP 10 μM) and below 50% on Tyk2 kinase domain (DH1) (compound at 10 μM, ATP 10 μM). The Kd in assay [1] was below 0.2 nM.

As to `CNc1cc(Nc2cccn([C@H]3CCCOC3)c2=O)nc2c(C(=O)N[C@H]3CC[C@H](O)C3)cnn12` (stereo in doubt) [I-701, N-(3-hydroxycyclopentyl)-7-(methylamino)-5-((2-oxo-1-((R)-tetrahydro 2H-pyran-3-yl)-1,2-dihydropyridin-3-yl)amino)pyrazolo[1,5-a]pyrimidine-3-carboxamide], the inhibition at 10 µM is below 50% at JAK2 kinase domain (JH1) (compound at 10 μM, ATP 10 μM) and below 50% on Tyk2 kinase domain (DH1) (compound at 10 μM, ATP 10 μM). In assay [1], this molecule registered a Kd of 0.2 to 1 nM.

As for `CNc1cc(Nc2cccn([C@@H]3C[C@H]3F)c2=O)nc2c(C(=O)N[C@@H]3CC[C@H]3O)cnn12` [I-1091], the inhibition at 10 µM at JAK2 kinase domain (JH1) (10 μM compound, 10 μM ATP) is below 50%; at Tyk2 kinase domain (DH1) (10 μM compound, 10 μM ATP) it was below 50%. The molecule also registered a Kd in assay [1] below 0.2 nM.
